Test results taken from patent US10548915B2, “Combination therapy for EV71 infection” (SUN JET BIOTECHNOLOGY INC., priority 2015, dated 2020).

Tested on: EV71 replication in RD cells
Experiment: anti-VP1 western blot of EV71-infected RD cells (VP1/vimentin ratio normalized to non-treated infected cells)
Type: cell-based, enterovirus type 71 (EV71 strain 4643/TW/1998)
Method: Antibodies—Used antibodies included rabbit anti-VP1 (GTX70007, 1:2000, GeneTex), mouse anti-vimentin (sc-6260, 1:1000, Santa Cruz).
Cell lines, viruses and viral infection—RD (Human rhabdomyosarcoma, ATCC® CCL-136™) cells were grown in Dulbecco's modified Eagle's medium (Sigma, USA) containing 10% fetal bovine serum (Invitrogen, USA), at 5% CO2 and 37° C. EV71 strain 4643/TW/1998 (GeneBank accession number 1N544418.1) was kindly provided by Dr. Lih-Hwa Hwang at National Yang-Ming University, Taiwan. Viruses were added to RD cells which were cultured in DMEM containing 2% FBS. The newly generated viruses were titrated by cytopathology assay. For viral infection, cells were seeded at 80% confluency in 6-well dishes and grown overnight. Before challenge with viruses of 5 multiplicity of infection (MOI), old medium was replaced with serum-free medium. After 1 h adsorption of viruses, infected cells were cultured in DMEM with 10% FBS.
Western blotting—Protein extracted from RD cells were resolved with electrophoresis. Protein were blotted onto a nitrocellulose membrane eletrophoretically and incubated with indicated antibodies. The immunoreactive bands were visualized with LAS-4000 (FUJIFLIM).

[1] = single compound at 0.005 μM (so in the source), RD cells, EV71 MOI 5
[2] = single compound at 5 μM, RD cells, EV71 MOI 5

Row | Structure (SMILES) | VP1 expression relative to non-treated infected cells [1] | anti-EV71 effect (VP1 expression), in words (single compound at 0.05 μM) | anti-EV71 effect (VP1 expression), in words (single compound at 5 μM) | VP1 expression relative to non-treated infected cells [2] | also measured
1 | CC(=O)OC[C@H]1O[C@@H]([S-])[C@H](OC(C)=O)[C@@H](OC(C)=O)[C@@H]1OC(C)=O.CCP(CC)CC.[Au+] [auranofin] | 0.9 | minimal effects | strong anti-EV71 | 0.05 | 
2 | CC[C@H]1CN2CCc3cc(OC)c(OC)cc3[C@@H]2C[C@@H]1C[C@H]1NCCc2cc(OC)c(OC)cc21 [emetine] |  | VP1 expression returning |  |  | anti-EV71 effect (VP1 expression), in words (single compound at 0.5-5 μM): strong blockage of EV71 expression
3 | CNCC[C@H](Oc1ccc(C(F)(F)F)cc1)c1ccccc1 [fluoxetine, S-(+)-fluoxetine] |  |  |  |  | VP1 expression relative to non-treated infected cells (single compound, all tested concentrations (5, 0.5, 0.05 μM)): 0.9-1.0
4 | O=C(Nc1ccc([N+](=O)[O-])cc1Cl)c1cc(Cl)ccc1O [niclosamide] | 0.9 | minimal effects | strong anti-EV71 | 0.2 | 
5 | C[C@@H]1O[C@@H](O[C@H]2C[C@@H](O)[C@]3(CO)[C@H]4[C@H](O)C[C@]5(C)[C@@H](C6=CC(=O)OC6)CC[C@]5(O)[C@@H]4CC[C@]3(O)C2)[C@H](O)[C@H](O)[C@H]1O [ouabain] |  |  |  |  | anti-EV71 effect (VP1 expression), in words (single compound at 0.005 μM): VP1 expression returning; anti-EV71 effect (VP1 expression), in words (single compound at 0.05-5 μM): strong blockage of EV71 expression
